Measurements from patent US20140342914A1, “Method of Plant Growth with Bifenthrin” (priority 2013, published 2014).

System: Corn seeds
Experiment: Corn seedling growth enhancement, in-furrow application at different rates (Example 2)
Assay type: in vivo
Conditions: average of 8 replications
Description: Ten corn seeds (Pioneer variety 33M53, treated with PONCHO® 250 Insecticide) were evenly spaced in a single, 2 cm deep, furrow in a planter box (25.5 cm by 11.5 cm) containing steam treated loam soil (pH 6.4, 4.3% organic matter. An aqueous suspension of CAPTURE® LFR Insecticide (17.5% bifenthrin) was sprayed as a T-band in-furrow application onto the uncovered seeds at a rate of 269 g ai/ha using a DeVries overhead track sprayer at a pressure of 40 psi and an application volume of 200 l/ha. The seeds were covered with soil and the planter boxes placed onto a lab cart with overhead lighting set at 14 hours on and 10 hours off and a room temperature of 21° C. Three replicate planter boxes (total of 30 seeds) were treated and three control planter boxes to which no CAPTURE® Insecticide was applied were included in the test. Each planter box was watered with 146 mL of tap water and re-watered with 50 mL of tap water along the furrow at 4 days after treatment (DAT). At four DAT there were 19 emerged seedlings in the treated planter boxes and 16 emerged seedlings in the untreated planter boxes. At five DAT all seeds had emerged and the seedlings were removed from the soil and the roots were gently rinsed in tap water to remove the soil. The seedlings were placed onto paper and the roots and shoots were measured from the seed to the tip of the tallest leaf and from the seed to the tip of the longest root and each seedling was weighed. Table 1 below summarizes the average shoot height; root length and seedling wet weight of the treated and untreated seeds.
In a manner similar to Example 1, Corn seeds were treated in-furrow with different rates of CAPTURE® LFR or test solutions of technical bifenthrin (96% purity) dissolved in acetone and diluted with distilled water containing 0.1% Tween® 20 (Polyoxylethylene-sorbitan monolaurate available from SigmaAldrich). There were 8 replications of each treatment including the untreated control. Table 2 below summarizes the average shoot height, root length and seedling weight of the treated and untreated seeds.

Cc1c(COC(=O)[C@@H]2[C@H](/C=C(\Cl)C(F)(F)F)C2(C)C)cccc1-c1ccccc1 (racemic) [Technical Bifenthrin, 2-methylbiphenyl-3-ylmethyl (Z)-(1RS)-cis-3-(2-chloro-3,3,3-trifluoroprop-1-enyl)-2,2-dimethyl cyclopropanecarboxylate]
Root Length (4.68 g ai/ha in-furrow): 20.8 cm
Seedling Weight (4.68 g ai/ha in-furrow): 1.1 gm
Shoot Height (4.68 g ai/ha in-furrow): 9.2 cm
Root Length (18.75 g ai/ha in-furrow): 20.7 cm
Seedling Weight (18.75 g ai/ha in-furrow): 1.1 gm
Shoot Height (18.75 g ai/ha in-furrow): 9.5 cm
Root Length (75 g ai/ha in-furrow): 21.5 cm
Seedling Weight (75 g ai/ha in-furrow): 1.2 gm
Shoot Height (75 g ai/ha in-furrow): 9.6 cm
Root Length (300 g ai/ha in-furrow): 21.8 cm
Seedling Weight (300 g ai/ha in-furrow): 1.1 gm
Shoot Height (300 g ai/ha in-furrow): 9.5 cm
Root Length (1200 g ai/ha in-furrow): 22.3 cm
Seedling Weight (1200 g ai/ha in-furrow): 1.2 gm
Shoot Height (1200 g ai/ha in-furrow): 9.9 cm
